# Experimental data as given in patent US11655239B2 (SHANGHAI INSTITUTE OF MATERIAL MEDICA, CHINESE ACADEMY OF …, priority 2019, dated 2023).
# Experiments:
# MRC-5 induced by TGF-β1 = test: Activation of MRC-5 induced by TGF-β1; format: cell-based, human; settings: levels of Fibronectin, α-SMA, Collagen1-α1
# Protocol: 1) Preparation of cell protein samples: the cell culture liquid was discarded, wash was performed once with PBS, and samples were collected by adding 1×SDS-Loading. after the samples were collected, they were placed in a metal bath at 100° C., and the samples were boiled for 10 minutes, and then the samples were stored at 4° C. for waiting for subsequent test.
# 2) Gel preparation and sample loading: according to the molecular weight of the detected protein, different concentrations of separation gel were selected. after filling the 1× electrophoresis buffer, an equal volume of protein sample 4 μl and protein marker were added on the far left to right in sequence.
# When the sample was in the concentrated gel, the voltage was set to 80 V; when the sample was electrophoresed to the separation gel, the voltage was increased to 120 V until the bromophenol blue was electrophoresed to reach the bottom of the gel, and the electrophoresis ended. […]
# 8) Secondary antibodies: the film with the primary antibodies was rewarmed and incubated for about half an hour, and then the primary antibodies were recovered and the film was washed quickly with TBST solution 3 times, 10 minutes each time. […] The dilution ratio of the secondary antibody dedicated for DDR2 was 1:5000; The dilution ratio for the rest of the secondary antibodies were 1:8000, ready for use. […]
# Flt-3 = Flt-3 (Homo sapiens (Human), UniProt P36888); test: Enzyme selectivity test (ELISA), Flt-3; format: biochemical
# Flt-3, sequence (P36888 27-993, species assumed): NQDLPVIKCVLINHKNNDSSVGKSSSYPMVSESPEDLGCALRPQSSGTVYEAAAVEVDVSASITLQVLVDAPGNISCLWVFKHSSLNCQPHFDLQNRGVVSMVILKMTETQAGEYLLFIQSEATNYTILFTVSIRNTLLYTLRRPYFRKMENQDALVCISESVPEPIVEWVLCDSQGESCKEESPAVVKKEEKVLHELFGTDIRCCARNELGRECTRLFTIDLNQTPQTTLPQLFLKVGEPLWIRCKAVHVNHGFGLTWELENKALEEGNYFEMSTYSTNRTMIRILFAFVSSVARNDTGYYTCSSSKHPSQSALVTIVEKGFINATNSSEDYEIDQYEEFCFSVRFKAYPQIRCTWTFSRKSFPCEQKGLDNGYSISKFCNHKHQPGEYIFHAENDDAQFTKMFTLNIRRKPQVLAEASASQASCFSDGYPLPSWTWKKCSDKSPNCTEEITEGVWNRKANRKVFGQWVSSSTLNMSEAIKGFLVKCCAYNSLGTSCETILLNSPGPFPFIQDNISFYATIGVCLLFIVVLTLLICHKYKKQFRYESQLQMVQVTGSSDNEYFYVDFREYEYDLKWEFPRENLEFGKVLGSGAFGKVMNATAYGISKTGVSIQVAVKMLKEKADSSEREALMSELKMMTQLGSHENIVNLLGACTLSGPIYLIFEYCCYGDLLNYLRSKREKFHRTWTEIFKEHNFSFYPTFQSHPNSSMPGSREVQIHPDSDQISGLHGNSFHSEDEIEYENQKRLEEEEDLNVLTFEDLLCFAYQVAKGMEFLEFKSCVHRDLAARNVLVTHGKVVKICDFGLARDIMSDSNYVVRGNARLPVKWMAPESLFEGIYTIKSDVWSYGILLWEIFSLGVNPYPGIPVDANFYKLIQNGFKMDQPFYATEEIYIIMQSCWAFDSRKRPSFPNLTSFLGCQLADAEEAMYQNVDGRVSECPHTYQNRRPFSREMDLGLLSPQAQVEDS
# Protocol: 1) Enzyme reaction substrate Poly(Glu, Tyr) 4:1 was diluted to 20 μg/mL with potassium-free PBS (10 mM sodium phosphate buffer, 150 mM NaCl, pH 7.2-7.4), and the microtiter plate was coated with 125 μL/well and placed at 37° C. for 12-16 hours of reaction. The liquid in the well was discard. The plate was washed three times with T-PBS (potassium-free PBS containing 0.1% Tween-20, 200 μL/well), 5 minutes each time. The ELISA plate was dried in an oven at 37° C. for 1 to 2 hours.
# 2) Reaction buffer (50 mM HEPES pH 7.4, 50 mM MgCl2, 0.5 mM MnCl2, 0.2 mM Na3VO4, 1 mM DTT) diluted ATP solution (49 μL) was added to each well, 1 μL of the compound to be tested was added to each well, and then 50 μL of DDR2 kinase domain recombinant protein diluted in the reaction buffer was added to start the reaction. Two control wells without ATP were set in each experiment. The plate placed on a shaker (100 rpm) at 37° C. for 1 hour of reaction. The liquid in the well was discarded and the plate was washed three times with T-PBS.
# 3) Antibody PY99 dilution solution (the antibody was diluted 1:500 with T-PBS containing BSA 5 mg/mL) was added at 100 μL/well, and shaken on a shaker at 37° C. for 0.5 hour of reaction. The liquid in the well was discarded and the plate was washed three times with T-PBS.
# 4) Horseradish peroxidase labeled goat anti-murine secondary antibody dilution solution (the antibody is diluted 1:2000 with T-PBS containing BSA 5 mg/ml) was added at 100 μL/well, and shaken on a shaker at 37° C. for 0.5 hour of reaction. The liquid in the well was discarded and the plate was washed three times with T-PBS.
# 5) 2 mg/ml of OPD color developing solution [diluted with 0.1 M citric acid-sodium citrate buffer (pH=5.4) containing 0.03% H2O2] was added at 100 μL/well and reacted for 1 to 10 minutes at 25° C. in the dark.
# 6) 2M H2SO4 was added at 50 μL/well to stop the reaction, and a tunable wavelength microplate reader VERSAmax was used for reading at a wavelength of 490 nm.
# The IC50 value was obtained by four-parameter regression using the software that came with the microplate reader. […]
# kinases = test: Enzyme selectivity test, kinase panel overall; format: biochemical; settings: kinase panel of Table 5
# Text: Except that the enzyme was different, other test methods and conditions were the same as the DDR2 enzyme activity test method in Effect example 1.
structure (smiles),measurement,setting,value
"O=C(Nc1cccc(C(F)(F)F)c1)c1ccc(C2CC2)c(-c2ccc3nc(Nc4cnn(C5CC5)c4)ncc3c2)c1 [Compound S15, 4-cyclopropyl-3-(2-((1-cyclopropyl-1H-pyrazol-4-yl)amino)quinazolin-6-yl)-N-(3-(trifluoromethyl)phenyl)benzamide]",activation of MRC-5 induced by TGF-β1,MRC-5 induced by TGF-β1,inhibit the activation of MRC-5 induced by TGF-β1 in a dose-dependent manner
same,IC50,Flt-3,> 1000 nM
same,selectivity for kinases,kinases,good selectivity
